row,melting point [°C],Structure (SMILES)
1,128 to 129,CC(=O)c1cccc(Cl)c1C(=O)O
2,121 to 124,CSc1ccc(NC(=N)c2ccc(F)cc2)cc1
3,> 380,O=C(O)c1cccc(N2C(=O)c3ccc(C(=O)O)cc3C2=O)c1
4,208 to 210,CCOC(=O)c1cnc2c(c(C)nc3cc(C)nn32)c1NC
5,153,CCOc1ccc(-c2ncc(C#N)cn2)cc1
6,133 to 134,CC(=O)N(C)CCc1ccc(CCC(=O)O)cc1
7,246,CC1Cc2cc(S(=O)(=O)n3cc(-c4ccccc4)[nH]c3=O)ccc2N1C(=O)c1ccc(NC(=O)CCl)cc1 (stereo unspecified)
8,135 to 137,NNC(=O)c1ccccc1-c1ccc(N)cc1
9,171 to 173,O=C(O)c1cc(Br)ccc1Sc1ccccc1
10,128 to 129,CS(=O)(=O)c1ccc(Oc2ccc(Br)cc2)cc1
11,246,NC(=O)Nc1ccc2c(c1)N1CCCN=C1S2
12,72 to 73.5,C#CCOc1cc(C(=O)OC)cc(OC)c1OC
13,152 to 155,Cc1c(-c2ccccc2)oc2c(CNC(=O)CCl)cccc2c1=O
14,250 to 252,Cc1c(C(=O)O)sc2cc(Cc3cccnc3)ccc12
15,146 to 147,O=C(O)c1ccccc1Oc1ccc(F)cc1
16,139,CC1CCC2(C)C(=CCC3C2CCC2(C)C(C(=O)CN)CCC32)C1 (stereo unspecified)
17,251,CCCC1=C(C(=O)OCC)C(c2cccnc2)c2c[nH]nc2N1 (stereo unspecified)
18,175 to 177,CC#CCC(CC#CC)(C(=O)O)S(=O)(=O)c1ccc(N2CCC(NC[C@H](O)c3ccc(O)c(NS(C)(=O)=O)c3)CC2)cc1
19,201,OC1CSC(Oc2cncc(-c3ncccn3)c2)C(O)C1O (stereo unspecified)
20,96 to 98,Cc1c(F)c(N2CCC(N)C2)c(C)c2c1c(=O)c(C(=O)O)cn2C1CC1 (stereo unspecified)
21,211 to 213,O=C(NCc1ccc(Cl)cc1)c1cn2c(CO)cc3cccc(c1=O)c32
22,266,O=C(Nc1ccc(C(=O)O)c(O)c1)c1ccc(-c2ccccc2)cc1
23,146 to 147,COc1ccc(-c2cc(COS(C)(=O)=O)c(=O)n(Cc3ccc(F)c(F)c3)n2)cc1F
24,141 to 142,Cc1ccc2c(Br)c(Cl)cc([N+](=O)[O-])c2n1
25,96 to 97,CCOc1cc(-c2nc(N)sc2CCC2CCCCC2)c(OC)cc1C
26,210 to 215,N#Cc1cc(O)c(O)c(C#N)c1CCCCC(=O)O
27,42,Cc1nc(S(C)(=O)=O)oc1C

row,melting point [°C],Structure (SMILES)
1,151 to 153,O=C(c1cccs1)c1cnn2c(-c3cccc(NC(=S)Nc4cccc(-c5ccnc6c(C(=O)c7cccs7)cnn56)c4)c3)ccnc12
2,134 to 136,CS(=O)(=O)c1ccc(-c2cnn(Cc3ccccc3)c(=O)c2-c2ccc(F)c(Cl)c2)cc1
3,108 to 109,CC(C)Nc1nc(Br)cnc1OCC(O)CBr (stereo unspecified)
4,177 to 179,COc1cc(Cl)c2c(=O)c(C(C)C)coc2c1
5,73 to 75,COc1ccc(/C=N/Nc2nccc(C(F)(F)F)n2)cc1OC1CCCC1
6,162 to 164,COc1ccc2c(c1)CCC(C(=O)Cl)C2 (stereo unspecified)
7,209 to 210,COc1ccc(CN2c3ncccc3NC(=O)c3cccnc32)cc1
8,143 to 146,CCCCCCCCCCCCCCOC(=O)c1cc(Cl)c(N2N=C(Nc3cc(N4CCCC4=O)ccc3Cl)CC2=O)c(Cl)c1
9,> 260,O=C(CI)Oc1cccc2c1C(=O)c1cn3c(c1C2=O)Cc1ccccc1C3
10,> 200,O=c1c(C2=CS(=O)(=O)c3cc(NS(=O)(=O)c4ccccc4)ccc3N2)c(O)c2cc(F)ccc2n1CCC1CC1
11,168 to 169,O=S(=O)(c1ccc(Cl)cc1)C(c1cc(F)ccc1F)c1cc(NCCO)ncc1Cl (stereo unspecified)
12,160 to 162,CCCc1c(O)ccc2c(C)c(CC(=O)OC)c(=O)oc12
13,110 to 115,CN(C)c1cccc(OCC(=O)C=P(c2ccccc2)(c2ccccc2)c2ccccc2)c1
14,34 to 35.3,C=CC(=O)OCCCCCCC[C@H]1CC[C@H](c2cccc(F)c2F)CC1
15,184 to 186,CCCCc1oc2ccccc2c1-c1ncc(-c2ccc3cc(O)ccc3c2)o1
16,156 to 159,Nc1cnc(Oc2cnc3ccccc3c2)c(Cl)c1
17,166 to 169,CC(C)(C)OC(=O)N1CC[C@H]2c3c(-c4ccccc4F)cccc3N(C(=O)OC(C)(C)C)[C@H]2CC1 (relative stereo)
18,148 to 149,CCOC(=O)c1c(C(=O)O)ccc(OC)c1OC
19,125 to 126,CCc1cc(C(=O)c2ccccc2Cl)c(NC=C[N+](=O)[O-])s1
20,99 to 102,CCCCOC(=O)[C@H]1CN(c2ccc3c(c2)sc(=O)n3CC)C(=O)O1
21,205 to 207,CC(C)n1nc(-c2sc(NC(=O)Oc3ccccc3)nc2-c2ccccc2)ccc1=O
22,132 to 134,Cn1nc(-c2ccccc2)nc1-c1ccncc1
23,134 to 135,COC(=O)c1ccc(/C=C\c2ccc(C(=O)OC)cc2Cl)cc1
24,187 to 189,CCCCNc1cc(Cl)c(S(C)(=O)=O)cc1C(=O)O
25,99 to 101,CC1=CC(OC(=O)c2nc[nH]c2C)C(O)C(C)(C)CC1=O (stereo unspecified)
26,188,CC(=NNC(=O)OC1CC(C)CCC1C(C)C)c1ccncc1 (stereo unspecified)

# Continued, compound first:
row,Structure (SMILES),melting point [°C]
1,Cc1cc2c(cc1-c1cc(C=CC(=O)O)ccc1F)C(C)(C)CCC2(C)C,181 to 183
2,COc1ccc(C2(c3cccc(-c4ccncc4)c3)N=C(N)N(C)C2=O)cc1C (stereo unspecified),175
3,CC12CC(=O)C3C(CCC4CC5OC5CC43C)C1CCC2=O (stereo unspecified),166 to 167
4,COc1ccc(OC)c2c1[C@H](C=O)c1ccccc1[C@@H]2C=O,129 to 132
5,CN(c1cc2occc(=O)c2cc1Oc1ccccc1)S(C)(=O)=O,187 to 189
6,O=C(C[C@@H](CCCC1CCCCC1)c1nc(CNC2CCCC2)co1)NO,124 to 127
7,COc1cc(NC(=O)OC(C)(C)C)c([N+](=O)[O-])cc1-c1ccc(F)cc1,250
8,Cc1ccc(C2CC(=O)CC(c3ccc(C)cc3)N2C)cc1 (stereo unspecified),105 to 107
9,C=CCOc1cc([N+](=O)[O-])ccc1[N+](=O)[O-],66.5 to 68
10,COc1cc(Cl)cc(Cl)c1O,62
11,O=C(CSCc1ccc2c(c1)OCO2)NO,127 to 128
12,Cc1cc(CN2CCNC2=C[N+](=O)[O-])on1,168 to 170
13,COc1ccccc1[C@@]1(O)[C@@H]2CNC[C@@H]2C(c2ccccc2)(c2ccccc2)C[C@@H]1O,230
14,CCCCC(CC)COC(=O)Nc1ccc(C=C(C#N)C(=O)OCC)cc1 (stereo unspecified),105
15,Cc1cc(NC(=O)OC(C)(C)C)c(N)cc1-c1ccccc1,122
16,Cc1cc(O)c([N+](=O)[O-])c(=O)n1CC(=O)O,205
17,COc1cc(-c2ccc(N(C)CCN(C)c3ccc(-c4cc(OC)c(N5CCCC5)c(OC)c4)nc3)cn2)cc(OC)c1N1CCCC1,221 to 225
18,COc1ccc(-c2nnc3c4ccccc4c(CNCCCC#N)nn23)cc1,117 to 119
19,COC(=O)C(N)Cc1ccc(OCCN(C)c2nc3ccccc3o2)cc1 (stereo unspecified),95 to 96
20,Cn1nc(-c2ccc([N+](=O)[O-])o2)c2c(Cl)ncnc21,195
21,CCCC[C@@H]1CCc2ccc(OCc3ccc4ccccc4n3)cc2[C@H]1O,58 to 59
22,N[C@@H](Cc1ccc(F)cc1)[C@H](O)c1ccc(C(F)(F)F)cc1 (racemic),130 to 131
23,CCOC(=O)c1cn(C)c2cc(-c3ccccc3)sc2c1=O,189 to 191
24,O=Cc1ccc(OCc2ccccc2)c(CCl)n1,72 to 73

row,Structure (SMILES),melting point [°C]
1,CN1C(=O)C2CCCN2Cc2cc(Cl)ccc21 (stereo unspecified),97 to 99
2,CC(=O)SCC(Cc1ccccc1)C(=O)Nc1cccc(C(=O)O)c1 (stereo unspecified),169 to 170
3,CC(=O)Nc1nc(CN2CCN(C(c3ccccc3)c3ccccc3)CC2)c(Cl)s1,227 to 230
4,CCCCCc1nc(O)c(-c2ccccc2)s1,128 to 130
5,CCOC(=O)c1cn(CCO)c2nc(-c3ccncc3)c(F)cc2c1=O,223 to 225
6,O=S(=O)(CC(Cl)C(F)=C(F)F)c1ccccc1 (stereo unspecified),45 to 47
7,Cn1cncc1C1(C(c2cccs2)c2cccs2)CCOC1=O (stereo unspecified),80
8,CCCCc1ccc2c(c1)Cc1cc(C(C)=O)ccc1-2,102 to 104
9,O=C(O)C1=Cc2c(ccc(Cl)c2-c2ccco2)OC1C(F)(F)F (stereo unspecified),191 to 193
10,COC1=CC(=O)C(OC)=C(CCCCCC2=C(OC)C(=O)C(Cl)=C(OC)C2=O)C1=O,44.8 to 46
11,CCCCc1nc(Cl)c(COC)n1Cc1ccc2oc(-c3ccccc3-c3nnn[nH]3)c(Br)c2c1,213 to 215
12,CCCCc1c(C)c2ccc(OCCCN3CCN(Cc4ccc(Cl)cc4)CC3)cc2[nH]c1=O,148 to 149
13,COc1cccc(OC2CN([C@H]3CC[C@@H](c4c[nH]c5ccc(F)cc54)CC3)C2)c1,125 to 127
14,CCOC(=O)CC[C@H](NC(=O)c1ccc(C=Cc2cnc3nc(NC(C)=O)nc(O)c3c2)cc1)C(=O)OCC,> 200
15,Cc1cc(C)cc(COC(=O)[C@H](Cc2cccc3ccccc23)NC(=O)OC(C)(C)C)c1,93 to 94
16,CCn1nc(-c2ccc(Oc3nc4cccnc4n3C)cc2)c2nccnc21,161 to 162
17,CCC12CCC3C4CCC(=O)C=C4CCC3C1CCC2OC(O)C(Cl)(Cl)Cl (stereo unspecified),175 to 176
18,CCc1ccc2c(c1)C(c1ccccc1F)=NCC1CN=C(C)N21 (stereo unspecified),152 to 154
19,CC(C)C[C@@H](C(=O)OCc1ccccc1)N1C(=O)[C@@H](N2C(=O)OC[C@@H]2c2ccccc2)[C@H]1CCc1ccccc1,138 to 140
20,COc1ccc(NC(=O)c2ccc([N+](=O)[O-])c(C)c2)cc1,168 to 169
21,OCc1c(CO)c(-c2ccc(F)c(F)c2)n2c1Cc1ccccc1C2,145 to 146
22,NC1N=CC=CC1(N)Br (stereo unspecified),158 to 160
23,CCN(CCCCc1c[nH]c2ccc(F)cc12)C1COc2c(F)ccc(C(N)=O)c2C1 (stereo unspecified),110
24,Cc1cccc(CNc2nc(NC[C@@H](C)O)nc3c2ncn3C(C)C)c1O,145 to 147

# — a melting point compilation (Tetko et al.; mined from patent text by program, amines drawn as free bases though some values may be those of a salt)
